Laboratory results taken from patent US20250255850A1, “PHARMACEUTICAL COMPOSITIONS FOR TREATING NEUROLOGICAL CONDITIONS” (YISSUM RESEARCH DEVELOPMENT COMPANY OF THE HEBREW …, priority 2021, published 2025).
Each block holds one substance with its values, some of them ahead of it.

What was measured:
SHSY-5Y cells = assay: Immunofluorescence of 3-nitrotyrosine and synaptophysin in SHANK3-silenced SHSY-5Y cells; assay type: cell-based, human
Procedure: A cell culture model for ASD was developed by silencing SHANK3 with an siRNA (5-3 RNA)-CGAUGAUAAGCAGUUUGCAAAGCUU (SEQ ID NO: 3) in the neuronal cell line SHSY-5Y cells, followed by silencing with of nNOS using the following RNA (5-3) CCUUGUCCAACAUGCUCCUAGAGAU (SEQ ID NO: 4).
SHSY-5Y Cells (with or without treatment) were fixed post treatment in 4% paraformaldehyde, incubated with the Primary rabbit MAP2+ primary mouse monoclonal 3-nitrotyrosine (FIGS. 9A-B) and with Primary rabbit monoclonal synaptophysin+primary mouse Map2 (FIGS. 9C-D). Thereafter, cells were incubated with anti-mouse secondary Alexa fluor488 (green)/594 (red), and anti-rabbit secondary Alexa fluor 488 (green)/594 (red), conjugated secondary antibodies. After washing, cells were mounted with DAPI (Blue). The images were acquired using a confocal microscope. Each group contained nine independent sets of experiments (initial cell seed number—about 10^6).
To support the effect of nucleic acid silencing on a SHANK3 silenced background, the present inventors applied siRNA to nNOS on […] SHSY-5Y Cells.

C57BL/6 wild-type mice [1] = assay: Novel object recognition test (NOR), SNAP-treated wild-type mice; assay type: in vivo, mouse
Procedure: (§1) Behavioral testing started after 2 hours of treatment.
Novel object recognition (see, FIG. 4A): The novel object test for object recognition and memory takes place in a white open field arena (45×45 cm). The test involves a set of two unique novel objects, each about the size of a mouse, constructed from two different materials and non-uniform in shape. The test consisted of one 10-minute habituation session, a 5-minute familiarization session and a 5-minute recognition test, each video tracked (Noldus Ethovision). During the habituation, animals were allowed to freely explore an empty open field. At the end of the session, they were shifted from the open field to a place in a temporary clean holding cage for about 2 minutes. Two identical objects were placed on the median line at 10 cm from each wall and the animal was returned to the open field and allowed to explore the objects for 5 minutes before being returned to its home cage. Next day, one familiar object and one novel object were placed in the open field to the location where the identical objects were placed during the familiarization session and the mouse was allowed to explore them for a 5-minute recognition test. […] Familiarization and recognition sessions were scored for total time spent investigating each object, the number of object interactions and the latency of the first object interaction. […]

C57BL/6 wild-type mice [2] = assay: Three-chambered sociability test, SNAP-treated wild-type mice; assay type: in vivo, mouse
Procedure: as §1
Three-chambered sociability test (see, FIG. 4B): Sociability and preference for social novelty and social recognition were tested in a three-chambered apparatus. The subjected mouse was first placed in the central, neutral chamber and allowed to explore for 10 minutes with all the doors closed. Next, doors were opened and the mouse was allowed to freely explore the other two empty chambers (1 and 2) for an additional 10 minutes. Lack of side preference was confirmed during this habituation.
Two cylindrical wire cages were placed, one in chamber 1 and the other in chamber 2. For the sociability test, the test animal was introduced to the middle chamber and allowed to adjust for 5 minutes. Then, an unfamiliar mouse was introduced into a wire cage in one of the side-chambers, and the other side-chamber remained empty. The time spent by the test mouse exploring the wire cage with an unfamiliar mouse inside was recorded for 5 minutes.
Next, to examine social memory, novel mice is introduced to the empty cage and the tested mice is examined whether they are interested in the novel mice compared to the familiar.
S-nitroso-N-acetylpenicillamines (SNAP), is an NO donor that increases the NO availability, subsequently leading to nitrosative stress and aberrant SNO signaling. […] To examine the potential effect of SNAP administration on mice behaviors, a novel object recognition test (NOR) and sociability test were performed (See, FIGS. 4A-B), and the obtained data are presented in FIGS. 2A-B, respectively.
A three-chamber sociability test was conducted as in Example 2 (see also FIG. 4B), to evaluate the interest of the mice to engage in social interaction with a stranger mouse. Generally, the mice prefer to spend more time with another mouse (sociability), and the mice have the tendency to investigate a novel intruder more than a familiar one (social novelty). […]

C57BL/6 wild-type mice [3] = assay: Elevated plus maze test, SNAP-treated wild-type mice; assay type: in vivo, mouse
Procedure: as §1
Elevated plus maze test (see, FIG. 4C): The elevated plus-maze consisted of four arms (30×5 cm), two open, and the other two closed. The platform was made of white plexiglass. The apparatus was elevated 45 cm above the floor. The test, described in, was initiated by placing the mouse on the central platform of the maze, facing one of the open arms, and letting it move freely. Each session lasted 5 min. The time spent in the close and open arms was recorded.
An elevated plus maze test (see, FIG. 4C) was performed to evaluate the anxiety-like behaviors among the mice, typically the anxiety quantified as the time spent in the closed arms.

C57BL/6 wild-type mice [4] = assay: Marble burying test, SNAP-treated wild-type mice; assay type: in vivo, mouse; details: SNAP IP 20 mg/kg/day for 10 days; vs WT
Procedure: as §1
Marble Burying test (see, FIG. 4D): The marble-burying assay is a tool for assessing either anxiety-like and/or repetitive-like behaviors in mice. Subjects were tested in a regular clean cage (28 cm long×18 cm wide×12 cm high) with 3 cm of fresh bedding. The subject was first placed in the empty cage for a 5-min habituation. It was then temporary placed in an empty clean cage while 20 dark blue glass marbles (15 mm in diameter) were positioned over the bedding equidistant in a 4×5 arrangement to cover the whole cage surface. The subject was then returned in the test cage and allowed to explore and bury the marbles during a 15-min session that was videotaped. At the end of the session the subject was removed and the number of marbles buried (50% marble covered by bedding material) was recorded.
A marble burying test (as shown in FIG. 4D) was utilized as an indication for repetitive behaviors and restricted interests.

[5] = SNAP IP 20 mg/kg/day for 7 days, wild-type mice vs control group
[6] = SNAP IP 20 mg/kg/day for 10 days, C57BL/6 WT mice

Substance: SHANK3 si-RNA: siRNA CGAUGAUAAGCAGUUUGCAAAGCUU (SEQ ID NO: 3) silencing SHANK3 (CGAUGAUAAGCAGUUUGCAAAGCUU; listed as RNA, chemistry not given here)
synaptophysin expression (immunofluorescence) (SHSY-5Y cells; SHSY-5Y cells treated with SHANK3 si-RNA alone): downregulated

solubility in DMSO (Solubility in DMSO): 20 mg/mL
Substance: S-nitroso-N-acetylpenicillamines [SNAP]
preference for the novel object (NOR test) (C57BL/6 wild-type mice [1]; [5]): failed to display a preference for the novel object | preference for the novel object (NOR test) (C57BL/6 wild-type mice [1]; [6]): failed to display a preference for the novel object | preference to engage in social interaction (sociability test) (C57BL/6 wild-type mice [2]; [5]): did not exhibit any preference to engage in social interaction | preference for novel mouse (S2) vs familiar (S1) (second session, social novelty) (C57BL/6 wild-type mice [2]; [6]): did not exhibit any significant preference to engage in social interaction with the mice | time interacting with stranger mouse vs empty cage (first session, sociability) (C57BL/6 wild-type mice [2]; [6]): spent more time interacting with the stranger mouse than with the empty cage | time in the closed arms (elevated plus maze) (C57BL/6 wild-type mice [3]; SNAP IP 20 mg/kg/day for 10 days, vs WT group): spent significantly more time in the closed arms compared to WT group | time spent in the open arms (elevated plus maze) (C57BL/6 wild-type mice [3]; SNAP i.p. 20 mg/kg daily for 10 days, vs WT): significantly decreased time in the open arms | number of marbles buried (C57BL/6 wild-type mice [4]): buried significantly less marbles

Substance: siRNA to nNOS: RNA (5-3) CCUUGUCCAACAUGCUCCUAGAGAU (SEQ ID NO: 4) silencing nNOS (CCUUGUCCAACAUGCUCCUAGAGAU; listed as RNA, chemistry not given here)
synaptophysin protein expression (immunofluorescence) (SHSY-5Y cells; nNOS knockdown in the SHANK3 si-RNA group (double knockdown)): recovery in synaptophysin protein expression | nitrotyrosine production (immunofluorescence) (SHSY-5Y cells; nNOS silencing in the SHANK3 si-RNA group (double knockdown)): reduction in nitrotyrosine production
